For test [1], the system named is ovariectomized (OVX) rats. Description: OVX rat study: serum minerals, enzymes and hormones. The note with it: OVX rats; lycopene 45 mg/kg/day; ALN 2.0 μg/kg/day sc; P<0.001. It is filed as in vivo, Wistar rats. The procedure:
(§1) A total of 264 Wistar female rats, ˜6 months old, were supplied by the Animal House at King Fahd Medical Research Center (KFMRC), KAU. Rats were housed in individual cages and maintained at 22° C. with a 12-h light/dark cycle. During the study period, rats were given standard rodent chow diet ad libitum (commercial rat cubes containing approximately 18% protein, 3% fat, 77% carbohydrate, and 2% of an inorganic-salt mixture with a vitamin supplement by weight, supplied by Grain Silos and Flour Mills Organization, Jeddah, Saudi Arabia) and water until the onset of intervention. Prior to surgery, rats were anesthetized with ketamine [(10% ketamine hydrochloride (80 mg/kg body weight), Cayman Chemical, Michigan, USA] and xylazine [(2% xylazine hydrochloride, 10 mg/kg body weight), Sigma-Aldrich Co., St. Louis, USA]. A single longitudinal skin incision was made on the dorsal midline at the level of the kidneys and both ovaries were ligated and removed to produce an ovariectomy in all OVX group animals. A SHAM-operated group, acting as a negative control for the effect of ovariectomy on bone parameters, underwent bilateral laparotomy, during which the ovaries were exposed but remained intact. […] The lycopene-supplemented groups were given lycopene (15, 30 and 45 mg/kg body weight per day) dissolved in corn oil by daily intra-gastric administration for the experimental period of 12 weeks. The SHAM, OVX and ALN control groups were given the same volume of corn oil without lycopene treatment. […] A 12-week randomized placebo-controlled study in order to examine the protective effects of lycopene supplementation on bone mass and fragility in OVX rats was concluded. Prior to surgery, body weight and bone mineral density (BMD) were obtained for all animals. Rats were randomized using a computer-generated randomization code into one of six groups: (1) sham-operated (SHAM; n=44); (2) ovariectomized control (OVX; n=44); (3) OVX lycopene-supplemented (15 mg/kg body weight per day) (n=44); (4) OVX lycopene-supplemented (30 mg/kg body weight per day) (n=44); (5) OVX lycopene-supplemented (45 mg/kg body weight per day) (n=44) and (6) OVX alendronate-treated (ALN) [2.0 μg/kg body weight per day subcutaneously (sc)] (n=44). Alendronate is an anti-resorptive agent for the treatment of osteoporosis and was used as a positive therapy control. […] All OVX groups were pair-fed with the SHAM group throughout the study to avoid the possible effects of ovariectomy-induced over-consumption and subsequent excessive weight gain. Treatment started 1 week after the surgery: this period of rest allowed the rats to recover from the stress associated with the surgery. […] Peripheral Quantitative CT (pQCT) scans were made of the proximal tibia metaphysis and the diaphysis. […]

Test [2] concerns ovariectomized (OVX) rats. Description: OVX rat study: dynamic bone histomorphometry of tibial metaphysis and diaphysis. It counts as in vivo, Wistar rats. As to conditions: ALN group, tibial diaphysis, for the most part. How it is done:
(§2) A total of 264 Wistar female rats, ˜6 months old, were supplied by the Animal House at King Fahd Medical Research Center (KFMRC), KAU. Rats were housed in individual cages and maintained at 22° C. with a 12-h light/dark cycle. During the study period, rats were given standard rodent chow diet ad libitum (commercial rat cubes containing approximately 18% protein, 3% fat, 77% carbohydrate, and 2% of an inorganic-salt mixture with a vitamin supplement by weight, supplied by Grain Silos and Flour Mills Organization, Jeddah, Saudi Arabia) and water until the onset of intervention. Prior to surgery, rats were anesthetized with ketamine [(10% ketamine hydrochloride (80 mg/kg body weight), Cayman Chemical, Michigan, USA] and xylazine [(2% xylazine hydrochloride, 10 mg/kg body weight), Sigma-Aldrich Co., St. Louis, USA]. A single longitudinal skin incision was made on the dorsal midline at the level of the kidneys and both ovaries were ligated and removed to produce an ovariectomy in all OVX group animals. A SHAM-operated group, acting as a negative control for the effect of ovariectomy on bone parameters, underwent bilateral laparotomy, during which the ovaries were exposed but remained intact. […] The lycopene-supplemented groups were given lycopene (15, 30 and 45 mg/kg body weight per day) dissolved in corn oil by daily intra-gastric administration for the experimental period of 12 weeks. The SHAM, OVX and ALN control groups were given the same volume of corn oil without lycopene treatment. […] A 12-week randomized placebo-controlled study in order to examine the protective effects of lycopene supplementation on bone mass and fragility in OVX rats was concluded. Prior to surgery, body weight and bone mineral density (BMD) were obtained for all animals. Rats were randomized using a computer-generated randomization code into one of six groups: (1) sham-operated (SHAM; n=44); (2) ovariectomized control (OVX; n=44); (3) OVX lycopene-supplemented (15 mg/kg body weight per day) (n=44); (4) OVX lycopene-supplemented (30 mg/kg body weight per day) (n=44); (5) OVX lycopene-supplemented (45 mg/kg body weight per day) (n=44) and (6) OVX alendronate-treated (ALN) [2.0 μg/kg body weight per day subcutaneously (sc)] (n=44). Alendronate is an anti-resorptive agent for the treatment of osteoporosis and was used as a positive therapy control. […] All OVX groups were pair-fed with the SHAM group throughout the study to avoid the possible effects of ovariectomy-induced over-consumption and subsequent excessive weight gain. Treatment started 1 week after the surgery: this period of rest allowed the rats to recover from the stress associated with the surgery. In addition, after surgery, rats were administered Diclofenac sodium injection (20 mg/Kg body weight) to reduce the pain associated with the surgery. Rats were weighed and examined daily. Blood and urine samples were collected at baseline, during, and at the end of treatment for measurement of various BTMs and other analytes. In vivo dual energy x-ray absorptiometry (DXA) measurements were made for the bone mineral content (BMC) and BMD of the whole body, lumbar spine (L1-L4), and the right humerus, together with body composition at 12 weeks of treatment. One day following the post-test DXA assessments (at 12 weeks, 16 rats in each group), animals were euthanized by decapitation and right and left femurs were extracted for further biomechanical and histomorphometric analyses. Blood and urine samples were collected from all experimental groups to measure biochemical analytes and BTMs at baseline and 4, 8, and 12 weeks of treatment. Peripheral Quantitative CT (pQCT) scans were made of the proximal tibia metaphysis and the diaphysis. In vivo micro-computed tomographic (μCT) scans of the proximal tibia were obtained during the treatment period to monitor changes in bone mass and microarchitecture. […]

Test [3] deals with ovariectomized (OVX) rats. The test is described as follows: OVX rat study: in vivo pQCT densitometry of tibia metaphysis. More on the design: species or system Wistar rats. As to conditions: 12 weeks, versus OVX control, P<0.001. How it is done:
(§3) A total of 264 Wistar female rats, ˜6 months old, were supplied by the Animal House at King Fahd Medical Research Center (KFMRC), KAU. Rats were housed in individual cages and maintained at 22° C. with a 12-h light/dark cycle. During the study period, rats were given standard rodent chow diet ad libitum (commercial rat cubes containing approximately 18% protein, 3% fat, 77% carbohydrate, and 2% of an inorganic-salt mixture with a vitamin supplement by weight, supplied by Grain Silos and Flour Mills Organization, Jeddah, Saudi Arabia) and water until the onset of intervention. Prior to surgery, rats were anesthetized with ketamine [(10% ketamine hydrochloride (80 mg/kg body weight), Cayman Chemical, Michigan, USA] and xylazine [(2% xylazine hydrochloride, 10 mg/kg body weight), Sigma-Aldrich Co., St. Louis, USA]. A single longitudinal skin incision was made on the dorsal midline at the level of the kidneys and both ovaries were ligated and removed to produce an ovariectomy in all OVX group animals. A SHAM-operated group, acting as a negative control for the effect of ovariectomy on bone parameters, underwent bilateral laparotomy, during which the ovaries were exposed but remained intact. […] Peripheral Quantitative CT (pQCT) scans were made of the proximal tibia metaphysis and the diaphysis. […]

The test system of test [4] is ovariectomized (OVX) rats. Description: OVX rat study: biochemical bone turnover markers. It is filed as in vivo, Wistar rats. The note with it: ALN 2.0 μg/kg/day sc. How it is done:
as §1

In test [5] the test system is ovariectomized (OVX) rats. The test is described as follows: OVX rat study: ex vivo μCT analysis of tibial metaphysis and femur diaphysis. It is filed as in vivo, Wistar rats. How it is done: as §2
The test system of test [6] is ovariectomized (OVX) rats. Description: OVX rat study: ex vivo pQCT and biomechanical testing of lumbar spine and femur. It is filed as in vivo, Wistar rats. The note with it: 12 weeks. The procedure: as §2, with “One day following the post-test DXA assessments (at 12 weeks, 16 rats in each group), animals were euthanized by decapitation and right and left femurs were extracted for further biomechanical and histomorphometric analyses. Blood and urine samples were collected from all experimental groups to measure biochemical analytes and BTMs at baseline and 4, 8, and 12 weeks of treatment.” left out, “diaphysis.” for “diaphysis. In vivo micro-computed tomographic (μCT) scans of the proximal tibia were obtained during the treatment period to monitor changes in bone mass and microarchitecture.”

Test [7] deals with ovariectomized (OVX) rats. The test is described as follows: OVX rat study: in vivo DXA densitometry of lumbar spine and humerus. On the set-up: species or system Wistar rats. As to conditions: 12 weeks, versus OVX control. How it is done: as §3
Setting [8] is: 12 weeks, lycopene, ALN 2.0 μg/kg/day, P<0.001.

On to `NCCCC(O)(P(=O)(O)O)P(=O)(O)O` [ALN, alendronate, reference compound], for which the “serum PTH values versus other groups” value in test [1] is reported as “significantly higher”. Moreover, in test [2], the “OVX-induced effects on cortical bone indices” value is recorded as “also prevented”. For the same molecule, in test [3], the “OVX-induced bone loss (total and trabecular BMD, proximal tibia, pQCT)” value was “prevented”. Further, in test [4] (P<0.001), the “OVX-induced increases in s-CTX and u-DPD levels” value is on record as “prevented”. The “s-OC and s-PINP levels compared with OVX control” value in test [4] (week 12, P<0.001) is “significantly decreased”. Besides, in test [5] (setting [8]), the “decrease in Tb.Sp, tibia metaphysis (μCT), compared with OVX group” value worked out at 37.3%; the “increase in BV/TV, tibia metaphysis (μCT), compared with OVX group” value is listed as 128.9%; the “increase in Tb.N, tibia metaphysis (μCT), compared with OVX group” value came out at 25.8%. In test [5] (OVX rats, 12 weeks), the “relative bone volume (BV/TV) of the femur diaphysis (μCT)” value is listed as “nor lycopene or ALN treatment had significant effects”. Moreover, the “femoral cortical values for Ct.Th and Ct.Po (μCT)” value in test [5] (lycopene 30 and 45 mg/kg/day, ALN, versus SHAM and OVX groups) was “improved”. For the same molecule, the “OVX-induced decrease in cortical thickness” value in test [6] (lycopene particularly 45 mg/kg/day, alendronate 2.0 μg/kg/day) is recorded as “prevented”. Also, the “lumbar spine biomechanical / bone strength parameters” value in test [6] (lycopene particularly 30 and 45 mg/kg/day, ALN 2.0 μg/kg/day, P<0.05) is “significantly increased”. The “OVX-induced bone loss (BMC and BMD, lumbar spine and humerus, DXA)” value in test [7] is recorded as “prevented”.
